Series [1] can be described thus: Effect of salts on stability of surfactant solutions, visual observation of precipitation. The format is physicochemical. The note with it: aqueous solutions, 5 wt % LAE. As for the experimental part:
Several experiments were conducted to examine the influence of salts on the stability of solutions containing Mirenat. The pH was not controlled here, as the buffer could mask the real behavior of the system. Still, it remained almost unchanged after the addition of salts. The added counterion (anion) contributed by the added electrolyte is assumed to be the same species as that contributed by the cationic surfactant, i.e. chloride ions Cl^−. Therefore, chloride salts, i.e. sodium chloride NaCl and calcium chloride CaCl2, were used. […] Precipitation occurred slowly, especially with low salt concentration where it could take up to 5 days. […] Almost every time precipitation took place, little or even no turbidity was noticeable. The results provided in Table 1 reflect qualitative visual observation.
Materials and Solution Preparation. Concentrated Mirenat®-N solution (25% lauric arginate, 75% PEG) was obtained from A&B Ingredients and used without further purification. Polyoxyethylene 20 sorbitan monolaureate (Tween 20), solvents (HCl, NaOH, purity >99%) and NaCl (>99%) was obtained from Sigma Chemical (St. Louis, Mo.). All solutions were prepared using doubles distilled and deionized water. Micellar solutions were prepared by gently mixing surfactants (Tween and LAE) at appropriate concentrations with double distilled water. As needed, pH was adjusted using HCl and NaOH.

Series [2] can be described thus: Critical micelle concentration from surface tension (drop shape tensiometry). Particulars: for Critical micelle concentration (CMC): pure systems in water. The format is physicochemical. How it is done: The critical micelle concentration of the pure systems was determined by plotting surface tension values against the logarithm of the total surfactant concentration. In order to determine the values of the critical micelle concentration, two linear fits were used. The first line was fitted to interval of concentration characterized by linear decrease of the surface tension and the second one to the region of concentration with the nearly constant surface tension. The point in which the fitted lines cross corresponds to the value of the critical micelle concentration (CMC). Here, the CMC is reached at a Mirenat concentration 0.25% v/v. This corresponds to 1.65 mmol.L^−1 of lauric arginate, 4 times lower than the literature value. Accordingly, all experiments will be carried out at a concentration largely exceeding the found value: 5% v/v.
Measurement of Surface Tension. A drop shape analysis tensiometer (Model DSA-G10 MK2, Kruss USA, Charlotte, N.C.) was used to determine surface tension of surfactant solutions (20.0±0.5° C.). The tensiometer determines the shape of pendant drops or bubbles through numerical analysis of the entire drop shape. The calculation of the interfacial tension from the drop shape is based on the Young-Laplace equation of capillarity and a detailed description can be found elsewhere (Dukhin, Kretschmer et al. 1995). Surface tension measurements were carried out at 20.0±0.5 ° C. To ensure accurate temperature control, an air bubble was formed at the inverted tip of a syringe that was submerged in the surfactant solution contained in a thermostatted cuvette. The syringe/cuvette system was positioned on an optical bench between the light source and a high-speed CCD camera. […] Samples were assumed to be equilibrated (the equilibrium dynamic interfacial tension DITeq) when measured values of DITeq remained unchanged for 30 minutes. […] Solution were equilibrated to 20° C. in a waterbath and density measured using a digital density meter (DMA 35N, Anton Paar GmbH, Graz, Austria). […]

A short description of series [3]: Solution turbidity (absorbance at 600 nm) and precipitation versus pH on NaOH titration. The format is physicochemical. The note with it: aqueous solutions, 5 wt % LAE, pH 2-13. As for the experimental part: The solution pH was increased stepwise by adding 0.5N NaOH and was recorded 2 min following each addition. It was plotted against the total amount of OH added for each of the solutions. Three minutes following each addition, a sub-sample was delivered via pipette into a cuvette for light absorption determination. […] However, this drastic change doesn't occur at the same hydroxide ions concentration for each of the different T20 concentrations. Indeed, it progressively shifts to the right of the graphic. Notice that beginning pH values are very close to each other for each solution. To the contrary, final pH values corresponding to the addition of 11 mmol OH^− are not the same and tend to decrease while the amount of T20 becomes higher. […]
pH would be expected to have an effect on precipitation as it affects the concentration of background ions H^+ and OH^− in the medium. […] It has been assumed that the initial rate of change in absorbance in the dispersions is a qualitative measure of the precipitation rate. […]
Solution Turbidity. Absorbance of solutions adjusted to pH or containing salts was measured by spectroscopy at a wavelength of 600 nm using a UV-Visible spectrophotometer (Spectronic 21D, Milton Roy, Rochester, N.Y.). […] The change in the of absorbance of solutions was used as an indirect measure to formation of larger particles an/or aggregates.

The next series relates to Escherichia coli. The note with it: cited from earlier work.
In the next series the test system is Listeria monocytogenes. Particulars: cited from earlier work.

A value given as a limit tells only on which side of the number the result lay.

Consider `CCCCCCCCCCCC(=O)N[C@@H](CCCNC(=N)N)C(=O)OCC.Cl` [LAE, ethyl-N^alpha-dodecanoyl-L-arginate hydrochloride], for which, in series [1], the “CaCl2 concentration at which precipitates form” value is recorded as more than 15 g/L and the “NaCl concentration at which precipitates form” value is reported as more than 10 g/L. The “Critical micelle concentration (CMC) as lauric arginate” value in series [2] (corresponds to Mirenat 0.25% v/v) turned out to be 1.65 mmol/L. Moreover, the “Critical micelle concentration (CMC)” value in series [2] came out at 0.25 % v/v. For the same compound, in series [3], the “pH at which precipitates form” value was more than 4.1. In the series on Escherichia coli, the Minimum inhibitory concentration entry was “less than 10 ppm”. Moreover, the Minimum inhibitory concentration entry in the series with Listeria monocytogenes is given as “less than 10 ppm”.
As for “Polyoxyethylene 20 sorbitan monolaureate [T20]”, the “Critical micelle concentration (CMC)” value in series [2] came to 0.3 % v/v.

Source of the values: US20070082018A1, “Stabilized antimicrobial compositions and related methods of preparation” (priority 2005, published 2007).
